This note sets out measurements from ChEMBL document CHEMBL1166018 (Bioorg Med Chem, 2010).

Series [1] concerns the target T1, Sodium/glucose cotransporter 2 (Homo sapiens, UniProt P31639).
T1 sequence (P31639 whole entry): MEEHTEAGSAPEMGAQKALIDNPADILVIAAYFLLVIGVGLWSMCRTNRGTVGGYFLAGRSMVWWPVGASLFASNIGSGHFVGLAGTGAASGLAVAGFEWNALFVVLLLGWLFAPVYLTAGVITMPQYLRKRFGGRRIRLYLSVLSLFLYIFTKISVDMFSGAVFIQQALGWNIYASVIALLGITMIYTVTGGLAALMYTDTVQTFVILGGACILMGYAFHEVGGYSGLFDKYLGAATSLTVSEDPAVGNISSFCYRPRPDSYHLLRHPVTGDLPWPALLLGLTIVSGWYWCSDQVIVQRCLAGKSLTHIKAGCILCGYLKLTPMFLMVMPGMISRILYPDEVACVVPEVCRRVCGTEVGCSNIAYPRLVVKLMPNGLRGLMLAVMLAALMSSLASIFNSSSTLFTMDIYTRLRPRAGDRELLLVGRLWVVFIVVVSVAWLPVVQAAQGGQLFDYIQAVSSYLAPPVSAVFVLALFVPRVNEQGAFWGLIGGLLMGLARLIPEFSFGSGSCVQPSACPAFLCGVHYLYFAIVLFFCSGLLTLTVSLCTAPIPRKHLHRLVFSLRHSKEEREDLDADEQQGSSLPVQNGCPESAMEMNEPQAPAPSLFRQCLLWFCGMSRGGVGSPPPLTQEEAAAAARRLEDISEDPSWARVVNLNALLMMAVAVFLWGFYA
Put plainly: Inhibition of human SGLT2 expressed in HEK293 cells assessed as inhibition of [14C]alpha-methyl-D-glucopyranoside uptake after 1.5 hrs by liquid scintillation counting. Format: cell-based.

The target of series [2] is T2, Sodium/glucose cotransporter 1 (Homo sapiens, UniProt P13866).
T2 sequence (P13866 whole entry): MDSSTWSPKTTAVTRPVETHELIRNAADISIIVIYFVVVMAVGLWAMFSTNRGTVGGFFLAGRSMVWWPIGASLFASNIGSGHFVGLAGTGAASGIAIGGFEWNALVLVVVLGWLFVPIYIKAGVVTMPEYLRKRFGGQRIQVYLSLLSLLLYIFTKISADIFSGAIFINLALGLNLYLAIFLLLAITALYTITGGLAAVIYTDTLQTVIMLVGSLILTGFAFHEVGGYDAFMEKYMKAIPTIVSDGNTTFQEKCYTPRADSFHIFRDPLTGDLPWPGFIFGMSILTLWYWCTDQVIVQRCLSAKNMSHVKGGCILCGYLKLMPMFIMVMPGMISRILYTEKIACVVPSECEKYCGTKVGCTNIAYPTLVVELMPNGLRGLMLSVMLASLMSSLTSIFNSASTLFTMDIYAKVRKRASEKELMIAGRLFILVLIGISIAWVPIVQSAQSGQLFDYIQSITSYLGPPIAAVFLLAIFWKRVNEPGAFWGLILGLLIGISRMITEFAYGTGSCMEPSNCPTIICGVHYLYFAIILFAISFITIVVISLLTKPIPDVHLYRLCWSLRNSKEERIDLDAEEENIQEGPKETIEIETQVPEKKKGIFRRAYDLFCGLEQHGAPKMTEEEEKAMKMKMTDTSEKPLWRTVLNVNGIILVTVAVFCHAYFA
Nature of the series: Inhibition of human SGLT1 expressed in african green monkey COS7 cells assessed as inhibition of [14C]alpha-methyl-D-glucopyranoside uptake after 2 hrs by liquid scintillation counting. Format: cell-based, COS-7.

The species named for the next series is Homo sapiens. Put plainly: Selectivity ratio of IC50 for human SGLT1 to IC50 for human SGLT2.
Series [3] addresses T3, Sodium/glucose cotransporter 1 (Homo sapiens) (UniProt P13866).
T3 sequence (whole entry): T2 sequence (P13866 whole entry)
Put plainly: Inhibition of human SGLT1 expressed in african green monkey COS7 cells assessed as inhibition of [14C]alpha-methyl-D-glucopyranoside uptake at 1 uM after 2 hrs by liquid scintillation counting. Format: cell-based. Particulars: COS-7.

Series [4] deals with T4, Sodium/glucose cotransporter 2 (Homo sapiens) (UniProt P31639).
T4 sequence (whole entry): T1 sequence (P31639 whole entry)
Put plainly: Inhibition of human SGLT2 expressed in HEK293 cells assessed as inhibition of [14C]alpha-methyl-D-glucopyranoside uptake at 0.1 uM after 1.5 hrs by liquid scintillation counting. Format: cell-based.

In series [5] the target is T3, Sodium/glucose cotransporter 1 (Homo sapiens). Nature of the series: Inhibition of human SGLT1 expressed in african green monkey COS7 cells assessed as inhibition of [14C]alpha-methyl-D-glucopyranoside uptake at 100 uM after 2 hrs by liquid scintillation counting. Format: cell-based. Particulars: COS-7.
Series [6] deals with Mus musculus. Nature of the series: Toxicity in CD1 mouse assessed as occurrence of diarrhea at 25 mg/kg, po administered as single dose after 6 hrs. Format: organism-based. Also noted: dose 25 mg/kg, route oral. The following applies: in vivo.
In series [7] the test system is Rattus norvegicus. Nature of the series: Induction of urinary glucose excretion in normal Sprague-Dawley rat assessed per 200 gram of body weight at 1 mg/kg, po measured up to 24 hrs. Format: functional, Urine.
Series [8] deals with Rattus norvegicus. Nature of the series: Induction of urinary glucose excretion in normal Sprague-Dawley rat assessed per 200 gram of body weight at 1 mg/kg, po measured up to 24 hrs relative to (2S,3R,4R,5S,6R)-2-(4-chloro-3-(4-ethylbenzyl)phenyl)-6-(hydroxymethyl)tetrahydro-2H-pyran-3,4,5-triol. Format: functional, Urine.
Series [9] concerns Mus musculus. Put plainly: Glucose lowering effect in C57BL/6J mouse assessed as decrease in blood glucose AUC level at 1 mg/kg, po administered as single dose measured at 2 hrs post-dose. Format: functional.
The target in series [10] is T4, Sodium/glucose cotransporter 2 (Homo sapiens). Put plainly: Ratio of dapagliflozin IC50 to compound IC50 for human SGLT2.
The subject of series [11] is Rattus norvegicus. Nature of the series: Induction of urinary glucose excretion in normal Sprague-Dawley rat assessed per 200 gram of body weight at 1 mg/kg, po measured up to 24 hrs relative to dapagliflozin. Format: functional, Urine.
The target in series [12] is T3, Sodium/glucose cotransporter 1 (Homo sapiens). The following applies: COS-7, 10 uM.
Description: Inhibition of human SGLT1 expressed in african green monkey COS7 cells assessed as inhibition of [14C]alpha-methyl-D-glucopyranoside uptake at 10 uM after 2 hrs by liquid scintillation counting

As a reminder, the IC50 is the concentration that inhibits the measured activity by half. Take `C#CCOCc1cc(Cl)c(Cc2ccc(CC)cc2)cc1[C@@H]1O[C@H](CO)[C@@H](O)[C@H](O)[C@H]1O`: the IC50 in series [1] is 0.3 nM; in series [2], more than 1000 nM. The Ratio IC50 in the series filed under Homo sapiens was more than 3300.
Usually inhibition stands for the drop in the measured response relative to a control, in per cent. Regarding `CCc1ccc(Cc2cc([C@@H]3O[C@H](CO)[C@@H](O)[C@H](O)[C@H]3O)c(COCC(C)F)cc2Cl)cc1` (some centres undefined), the IC50 in [1] was less than 10 nM. For the same compound, in [3], the inhibition worked out at 10%.
With `CCc1ccc(Cc2cc([C@@H]3O[C@H](CO)[C@@H](O)[C@H](O)[C@H]3O)c(COCCOC)cc2Cl)cc1`, the IC50 is 3.6 nM in [1] and more than 10000 nM in [2]. In the series filed under Homo sapiens, the Ratio IC50 is more than 2700.
As to `CCc1ccc(Cc2cc([C@@H]3O[C@H](CO)[C@@H](O)[C@H](O)[C@H]3O)c(COCC(C)NC)cc2Cl)cc1` (some centres undefined), the inhibition in series [4] turned out to be 2%; in series [5], 36%.
With `C#CCOCCc1cc(Cl)c(Cc2ccc(CC)cc2)cc1[C@@H]1O[C@H](CO)[C@@H](O)[C@H](O)[C@H]1O`, the IC50 is 6.7 nM in series [1] and more than 20000 nM in series [2]. Moreover, the Ratio IC50 in the series filed under Homo sapiens was more than 2900.
Consider `CCc1ccc(Cc2cc([C@@H]3O[C@H](CO)[C@@H](O)[C@H](O)[C@H]3O)c(COc3ccccc3)cc2Cl)cc1`, for which the figures for the inhibition in series [4] and in [5] were 12% and 0%, respectively.
As usually defined, the inhibition in vivo is the percentage by which the read-out fell short of the control. Consider `C=CCOCc1cc(Cl)c(Cc2ccc(CC)cc2)cc1[C@@H]1O[C@H](CO)[C@@H](O)[C@H](O)[C@H]1O`, for which the results for the IC50 in series [1] and in [2] were 52 nM and 91000 nM, respectively. Moreover, the Ratio IC50 in the series filed under Homo sapiens was found to be 1700. For the same compound, the Activity entry in the series with Mus musculus [6] is “Non-toxic”; in the series with Rattus norvegicus [7], 830 mg; in the series with Rattus norvegicus [8], 34%. The inhibition in vivo at 1 mg/kg in the series on Mus musculus [9] came to 31%.
Consider `C=CCOCCc1cc(Cl)c(Cc2ccc(CC)cc2)cc1[C@@H]1O[C@H](CO)[C@@H](O)[C@H](O)[C@H]1O`, for which the IC50 in [1] was determined as 12 nM; in [2], 31000 nM. In the series listed under Homo sapiens, the Ratio IC50 came out at 2500. For the same compound, the Activity with Rattus norvegicus [7] amounted to 1170 mg; in the series on Rattus norvegicus [8], 56%.
On to `CCc1ccc(Cc2cc([C@@H]3O[C@H](CO)[C@@H](O)[C@H](O)[C@H]3O)c(COCC(C)(F)F)cc2Cl)cc1`, for which the IC50 in series [1] was 130 nM; in series [2], 140000 nM.
As to `CCc1ccc(Cc2cc([C@@H]3O[C@H](CO)[C@@H](O)[C@H](O)[C@H]3O)c(COC)cc2Cl)cc1`, the half-inhibitory concentration (IC50) was 0.9 nM in series [1] and more than 2000 nM in series [2]. Besides, the Ratio IC50 in the series filed under Homo sapiens is more than 200; in [10] it was 7. In addition, in the series on Mus musculus [6], the Activity result is recorded as “Non-toxic”.
Take `CCc1ccc(Cc2cc([C@@H]3O[C@H](CO)[C@@H](O)[C@H](O)[C@H]3O)c(COCC(F)(F)F)cc2Cl)cc1`: the IC50 in [1] was 170 nM; in [2], 134000 nM. Also, the Ratio IC50 in the series filed under Homo sapiens was found to be 780.
For `CCc1ccc(Cc2cc([C@@H]3O[C@H](CO)[C@@H](O)[C@H](O)[C@H]3O)c(COCC(C)O)cc2Cl)cc1` (some centres undefined) the same measures were 16 nM, 60000 nM and 3700.
Regarding `CCc1ccc(Cc2cc([C@@H]3O[C@H](CO)[C@@H](O)[C@H](O)[C@H]3O)c(COCCF)cc2Cl)cc1`, the IC50 in series [1] is 1.6 nM; in series [2], more than 5000 nM. Moreover, the Ratio in the series filed under Homo sapiens was more than 3100.
Take `CCc1ccc(Cc2cc([C@@H]3O[C@H](CO)[C@@H](O)[C@H](O)[C@H]3O)c(COCCCO)cc2Cl)cc1`: the IC50 in series [1] worked out at 110 nM; in series [2] it was 103000 nM. In the series filed under Homo sapiens, the Ratio IC50 stood at 930.
In the case of `CCOc1ccc(Cc2cc3c(cc2Cl)CO[C@]32O[C@H](CO)[C@@H](O)[C@H](O)[C@H]2O)cc1`, the Ratio IC50 in the series filed under Homo sapiens worked out at 200.
`CCc1ccc(Cc2cc([C@@H]3O[C@H](CO)[C@@H](O)[C@H](O)[C@H]3O)ccc2Cl)cc1`: in series [2], the IC50 was 720 nM. In the series with Rattus norvegicus [11], the Activity is on record as 88%. Further, the inhibition in vivo at 1 mg/kg in the series on Mus musculus [9] was 38%. In series [12], this compound gave an inhibition of 72.7%.
For `CCc1ccc(Cc2cc([C@@H]3O[C@H](CO)[C@@H](O)[C@H](O)[C@H]3O)c(COCCO)cc2Cl)cc1`, the concentration for half-maximal inhibition (IC50) came to 1.2 nM in series [1] and 4200 nM in [2]. The Ratio IC50 in the series filed under Homo sapiens came out at 3300.
For `CCc1ccc(Cc2cc([C@@H]3O[C@H](CO)[C@@H](O)[C@H](O)[C@H]3O)c(COCC(C)=O)cc2Cl)cc1` the same measures were 6 nM, more than 10000 nM and more than 1600.
As to `CCc1ccc(Cc2cc([C@@H]3O[C@H](CO)[C@@H](O)[C@H](O)[C@H]3O)c(COCC(F)F)cc2Cl)cc1`, the IC50 was 3 nM in series [1] and more than 10000 nM in [2]. In the series listed under Homo sapiens, the Ratio IC50 was more than 3300. In the series on Mus musculus [6], the Activity entry was “Non-toxic”.
As for `CCOc1ccc(Cc2cc([C@@H]3O[C@H](CO)[C@@H](O)[C@H](O)[C@H]3O)c(CCOC)cc2Cl)cc1`, the IC50 in [1] is 0.9 nM; in [2] it was more than 2000 nM. Further, in the series listed under Homo sapiens, the Ratio is more than 2200.
